From patent US12060432B2, “Combination therapies with anti-CD38 antibodies” (Janssen Biotech, Inc., priority 2014, dated 2024)

Key:
NAMALWA cells = experiment: NAMALWA model of Burkitt's lymphoma: daratumumab alone or with CHOP; type: in vivo, NOD SCID mice
Protocol: (§1) 2×10^5 NAMALWA cells in matrigel were implanted into NOD SCID mice and treatment initiated when the main tumor size reached approximately 189 mm^3. Daratumumab was administered at 10 mg/kg once a week for three weeks. CHOP was administered daily on days 0-5 using following doses: cyclophosphoamide (CTX): 5 mg/kg i.v.; doxorubicin: 0.5 mg/kg i.v; vincristine: 0.08 mg/kg i.v., prednisone: 0.03 mg/kg p.o. Tumor volume was measured every three days. The Y-axis represents tumor volume±SEM
As a model for Burkitt's lymphoma, NAMALWA cells were utilized to study the efficacy of daratumumab alone or in combination with CHOP.
Namalwa cells were maintained in vitro in RPMI 1640 medium supplemented with fetal bovine serum (10% v/v), and L-glutamine (2 mM) at 37° C. in an atmosphere of 5% CO2 in air. The cells were routinely subcultured twice weekly by trypsin-EDTA treatment. The cells growing in an exponential growth phase were harvested and counted for tumor inoculation. The mice were injected with 2×10^5 Namalwa cells in 0.1 ml of PBS with matrigel (1:1) subcutaneously and the treatments were started when the mean tumor size reached 189 mm^3. The date of tumor cell inoculation is denoted as day 0. The major endpoint was to see if the tumor growth can be delayed or tumor-bearing mice can be cured. Tumor sizes were measured twice weekly and % TGI values calculated as described in Example 1.
Animals were divided in four treatment groups and were administered vehicle (isotype control), daratumumab, CHOP or daratumumab in combination with CHOP at dosages as described in Table 2.

[1] = test system: ST1361 NHL-DLBCL (diffuse large B-cell lymphoma) PDX (patient derived xenograft) model; experiment: Patient-derived DLBCL xenograft ST1361: daratumumab alone or with CHOP or R-CHOP; type: in vivo, SCID/Beige mice; settings: for % TGI (percent tumor growth inhibition): up to day 31, versus isotype control
Protocol: Resected DLBCL tumors were implanted in SCID/Beige mice. […] Daratumumab was administered at 20 mg/kg once a week for three weeks. CHOP and R-CHOP were administered once on day 0 except prednisone was administered on days 0-4 using the following regimens: CHOP: (cyclophosphoamide (CTX): 30 mg/kg i.v.; doxorubicin: 2.5 mg/kg i.v; vincristine: 0.4 mg/kg i.v); prednisone: 0.15 mg/kg p.o; R-CHOP: rituximab 20 mg/kg i.p. DAY 0. Tumor volume was measured every three days. The Y-axis represents tumor volume±SEM.
ST1361 is a NHL-DLBCL (diffuse large B-cell lymphoma) PDX (patient derived xenograft) model originating from a person chemo-naïve prior to metastatic sample collection.
Tumors were implanted in immunocompromised mice between 5-8 weeks of age. […] Daratumumab was dosed at 20 mg/kg once a week for 3 weeks. CHOP and R-CHOP at the concentrations described below were dosed once on day 0. CHOP (cyclophosphoamide: 30 mg/kg; doxorubicin: 2.5 mg/kg; vincristine: 0.4 mg/kg)-IV DAY 0; prednisone: 0.15 mg/kg DAYS 0-4; R-CHOP: rituximab 20 mg/kg-IP DAY 0. Beginning Day 0, tumor volume was measured twice weekly by digital caliper and data including individual and mean estimated tumor volumes (Mean TV±SEM) recorded for each group. The study was used to measure tumor growth inhibition until the control group was terminated and then continued as a survival study to evaluate the duration of daratumumab efficacy.
For the study, beginning Day 0, tumor dimensions were measured twice weekly by digital caliper and data including individual and mean estimated tumor volumes (mean TV±SEM) recorded for each group.

SU-DHL-6 cells = experiment: SU-DHL-6 cell line based NHL-DLBCL model: daratumumab alone or with CHOP; type: in vivo, NOD SCID mice
Protocol: as §1, with “5×10^6 SU-DHL-6” for “2×10^5 NAMALWA”, “cells” for “cells in matrigel”, “154” for “189”, “four” for “three”, “size” for “volume”, “plotted as Mean±SEM.” for “measured every three days. The Y-axis represents tumor volume±SEM”
SU-DHL-6 cell line based NHL-DLBCL model was utilized to study the efficacy of daratumumab alone or in combination with CHOP.
The SU-DHL-6 cells were maintained separately in vitro in RPMI1640 medium supplemented with 20% fetal bovine serum (v/v) at 37° C. in an atmosphere of 5% CO2 in air. The cells were routinely subcultured twice weekly. The cells growing in an exponential growth phase were harvested and counted for tumor inoculation. NOD SCID mice were γ-irradiated (200 rads) at 24 h before injection. Each mouse was inoculated subcutaneously at the right flank with SU-DHL-6 tumor cells (5×10^6) in 0.1 ml of PBS with matrigel (1:1) for tumor development. The treatments were started when the tumor size reaches approximately 154 mm^3. The date of tumor cell inoculation is denoted as day 0. Tumor sizes were measured twice weekly and % TGI values calculated as described in Example 1.
Animals were divided in four treatment groups and were administered vehicle, daratumumab, CHOP or daratumumab in combination with CHOP at dosages as described in Table 3.

## Daratumumab: anti-CD38 antibody, IgG1/κ; VH SEQ ID NO: 4, VL SEQ ID NO: 5; heavy chain SEQ ID NO: 12, light chain SEQ ID NO: 13
NAMALWA cells; at tumor size of 2,303 mm^3
  Tumor growth delay: 2 days
NAMALWA cells; day 26 post tumor inoculation
  T/C value: 70.46%
NAMALWA cells; day 26 post tumor inoculation, versus vehicle
  Antitumor activity in tumor size: significant antitumor activity
NAMALWA cells; day 26 post tumor inoculation, daratumumab 10 mg/kg QW x 3, CHOP QD x 5
  Mean tumor size: 3,017 mm^3
[1]; day 31, daratumumab 20 mg/kg once a week for 3 weeks, CHOP/R-CHOP once on day 0, prednisone days 0-4, day 0 volume 145-146 mm^3
  Mean tumor volume (mm^3) ± SEM: 744 ± 236 mm^3
[1]
  % TGI (percent tumor growth inhibition): 71%
[1]; listed as daratumumab
  % TGI (percent tumor growth inhibition): ~71%
SU-DHL-6 cells; at tumor size of 1,500 mm^3
  Tumor growth delay: 3 days
SU-DHL-6 cells; day 32 post tumor inoculation
  T/C value: 45.45%
SU-DHL-6 cells; day 32 post tumor inoculation, versus vehicle
  Antitumor activity in tumor size: significant antitumor activity
SU-DHL-6 cells; day 32 post tumor inoculation, daratumumab 10 mg/kg QW x 4, CHOP QD x 5
  Mean tumor size: 1,946 mm^3
